Measured values: patent publication US4171299A, “Polypeptide agents for blocking the human allergic response” (The Regents of the University of California, priority 1976, dated 1979)
Peptide text beside a SMILES is read from it.

Key:
Format in all cases: in vivo
[1] = molecular target: T1, binding sites on mast cells (Homo sapiens, UniProt P12319); test: Prausnitz-Kustner (P-K) reaction blocking activity assay in human volunteers; conditions: for inhibition, individual high: highest individual of six; for inhibition, individual high / inhibition, individual low: same conditions as the average; for inhibition, individual low: lowest individual of six; for average % inhibition (P-K wheal): six individuals, peptide approx. 6 μg/ml, 0.1 ml intradermally per site, 0.05 ml diluted P-K serum containing 0.2 ng IgE, guinea pig antigen prick-puncture, versus control wheal
T1 construct: endogenous in cells; host or cells: skin mast cells of living human volunteers (intradermal injection sites on back or forearm)
T1 sequence (P12319 26-257): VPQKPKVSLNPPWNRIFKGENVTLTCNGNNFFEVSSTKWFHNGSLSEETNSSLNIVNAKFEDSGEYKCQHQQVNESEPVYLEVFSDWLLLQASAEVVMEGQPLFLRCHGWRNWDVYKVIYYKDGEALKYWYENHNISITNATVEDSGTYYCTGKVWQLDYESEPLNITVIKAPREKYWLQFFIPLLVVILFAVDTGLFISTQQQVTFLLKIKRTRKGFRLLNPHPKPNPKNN
T1 sequence (Q01362 1-244 partner): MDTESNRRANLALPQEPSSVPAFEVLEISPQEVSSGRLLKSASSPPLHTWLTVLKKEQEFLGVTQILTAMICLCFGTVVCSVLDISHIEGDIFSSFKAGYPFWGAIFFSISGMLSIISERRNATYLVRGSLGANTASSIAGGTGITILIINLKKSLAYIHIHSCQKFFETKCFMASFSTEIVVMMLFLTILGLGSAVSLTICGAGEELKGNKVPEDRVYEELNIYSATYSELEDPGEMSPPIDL
T1 sequence (P30273 19-86 partner): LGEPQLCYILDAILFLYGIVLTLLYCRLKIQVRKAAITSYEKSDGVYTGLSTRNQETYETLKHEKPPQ
Procedure: The "blocking" activity of the polypeptides of the invention can be assayed by utilization of the classic Prausnitz-Kustner (P-K) reaction. In this classic method, a known allergic serum i.e., one that contains IgE specific for a known antigen or allergen is injected intradermally into a human volunteer. After waiting a period of time, e.g. 20 or more hours, the injected sites are then challenged with a prick or injection of a solution of an antigen that is specific for the IgE in the injected serum. Within the next 10 to 30 minutes a positive reaction is evidenced by the development of a wheal (and flare) at the injected site. The more extensive the diameter of the wheal the more intensive is the allergic reaction. That is, a more extensive wheal indicates a greater release of histamine into the tissues at the injected site. Conversely, the development of wheals of lesser diameter or the absence of any wheal at all indicates diminished allergic reaction and/or no allergic reaction at all. The P-K reaction as noted above is a classic test and is universally known and utilized by allergists.
As noted above, the classic P-K reaction is utilized to assay the "blocking" abilities of the polypeptides utilized in the present invention.
The following describes assays of a number of polypeptides useful in the present invention, the synthesis of which was described hereinabove.
All of these assays were performed using a single proven safe P-K donor serum that contains IgE specific for guinea pig allergens.
Peptide solutions were either injected intradermally 1 to 24 hours prior to the P-K serum, or mixed with dilutions of the P-K serum for simultaneous injection. Initial tests were performed using the P-K serum at from 1:4 to 1:200 dilutions. Further studies were run at a fixed P-K dilution of 1:32 while the invention peptide solutions were varied to contain from about 1 mM to […] of the peptide being tested. Injected sites on the volunteers were challenged by prick-puncture of guinea pig BCA 1:40 w/v (purchased from Berkeley Biologicals, Inc.).
Human volunteers were chosen who had serum IgE levels below 100 U/ml (242 ng/ml) which levels have been previously shown to assure successful P-K reactivity. […] P-K and skin tests were performed on the back and/or forearm. Multiple test sites of approximately 25 mm diameter were circled with a marking pen and all injections were made within the circled skin areas.
A typical sequence of events was intradermal injection of 0.1 ml of the peptide solution or control buffered saline diluent solution; followed in 1 to 24 hours by intradermal injection of 0.05 ml. of P-K serum into each of the previously injected sites. After 20 to 24 hours had elapsed, each site was prick-punctured with the antigen solution, blotted dry in 5 minutes and measurements of the wheal and flare in both their narrowest and widest diameter were made three times, usually 15, 20 and 25 minutes after prick-punctures.
Blocking activity assays were undertaken with the following polypeptides: Asp-Pro-Arg; Ser-Asp-Pro-Arg; Asp-Ser-Asp-Pro-Arg; and Ala-Asp-Ser-Asp-Pro-Arg. For comparison testing, Asp-Thr-Glu-Ala-Arg and tosyl-L-arginine sarcosine methylester (TASME), were also synthesized and tested.
The above-noted polypeptides were assayed as noted above on six different individuals. Results were as follows:
The results, as noted above, present the average of measurements at three time intervals, in duplicate, for each reaction in each individual, subtracted from the average control wheal measurements, and divided by the average measurement of each individual's control wheal. Control wheals in different individuals varied from 8 to 40 mm^2 with a mean of 17 mm^2. Each peptide was utilized at approximately 6 μg/ml dilution and 0.1 ml. was injected at each site, followed by 0.05 ml. of diluted P-K serum containing 0.2 ng. of IgE. […]

[2] = molecular target: T2, IgE already bound to mast cell sites (Homo sapiens, UniProt P12319); test: Displacement test: direct guinea pig antigen skin challenge in a naturally sensitive individual; conditions: single sensitive individual; for wheal smaller than at buffered saline diluent site: challenge twenty-four hours after intradermal injection of approx. 2 nM
T2 construct: endogenous in cells; host or cells: skin mast cells of one naturally guinea-pig-sensitive person, carrying own IgE
T2 sequence (P12319 26-257): T1 sequence (P12319 26-257)
T2 sequence (Q01362 1-244 partner): T1 sequence (Q01362 1-244 partner)
T2 sequence (P30273 19-86 partner): T1 sequence (P30273 19-86 partner)
Procedure: It has also been determined that the active polypeptides of the invention appear to have the ability to "displace" IgE from mast cell sites as well as to prevent the binding of IgE to these sites. In a single test, an individual known to have extreme sensitivity to guinea pig antigens, that is a person with a high natural concentration of guinea-pig-antigen-sensitive IgE, was injected with polypeptides in accordance with the invention, and […] reaction to guinea pig antigen was noted.
Specifically, approximately 2 nM each of Asp-Ser-Asp-Pro-Arg and Ala-Asp-Ser-Asp-Pro-Arg were each intradermally injected into 3 marked sites. For comparison, TASME, as well as a control of the buffer diluent alone, was also each injected into 3 marked sites. At one, five and twenty-four hours subsequent to the polypeptide and control injection, one of each peptide and one diluent site were prick-puncture challenged with guinea pig antigen. […] However, at the twenty-four hour challenge, the wheal at the Asp-Ser-Asp-Pro-Arg site was approximately 45% smaller; while at the Ala-Asp-Ser-Asp-Pro-Arg site, the wheal was approximately 23% smaller.

DBA white mice = test: Acute toxicity in DBA white mice; conditions: 24 to 72 hours post-injection; for post-mortem gross and microscopic examination of tissues and organs: 1.4 ml i.d./s.c./i.v./i.p.
Procedure: Acute toxicity was determined as follows:
DBA white mice (average weight 15 g.) were each injected with 1.4 ml. of a solution of the peptide in phosphate buffered saline, pH 7.4, as follows:
0.1 ml.×3 --subcutaneously
0.6 ml.--intraperitoneally
The peptides and concentrations used were as follows:
Ala-Asp-Ser-Asp-Pro-Arg (Example 4)--5 μg/ml--(375 mg/kg)--6 mice
Asp-Ser-Asp-Pro-Arg (Example 3)--10 μg/ml--(1 mg/kg)--8 mice
Asp-Ser-Asp-Pro-Arg (Example 3)--13 μg/ml--(1.3 mg/kg)--8 mice

Compound	inhibition, individual high [1]	inhibition, individual low [1]	average % inhibition (P-K wheal) [1]	inhibition of the wheal and flare reaction ([2]; challenge one and five hours after intradermal injection of approx. 2 nM)	wheal smaller than at buffered saline diluent site [2]	post-mortem gross and microscopic examination of tissues and organs (DBA white mice; 10 μg/ml (1 mg/kg), 8 mice)	survival of mice (DBA white mice; 10 μg/ml (1 mg/kg), 8 mice)	post-mortem gross and microscopic examination of tissues and organs (DBA white mice; 13 μg/ml (1.3 mg/kg), 8 mice)	survival of mice (DBA white mice; 13 μg/ml (1.3 mg/kg), 8 mice)	post-mortem gross and microscopic examination of tissues and organs (DBA white mice; 5 μg/ml (375 mg/kg), 6 mice)	survival of mice (DBA white mice; 5 μg/ml (375 mg/kg), 6 mice)
N=C(N)NCCC[C@H](NC(=O)[C@@H]1CCCN1C(=O)[C@@H](N)CC(=O)O)C(=O)O [Asp-Pro-Arg] (H-Asp-Pro-Arg-OH)	38%	0%	15%								
C[C@H](NC(=O)[C@H](CCC(=O)O)NC(=O)[C@@H](NC(=O)[C@@H](N)CC(=O)O)[C@@H](C)O)C(=O)N[C@@H](CCCNC(=N)N)C(=O)O [Asp-Thr-Glu-Ala-Arg, reference compound] (H-DTEAR-OH)	80%	30%	58%								
N=C(N)NCCC[C@H](NC(=O)[C@@H]1CCCN1C(=O)[C@H](CC(=O)O)NC(=O)[C@@H](N)CO)C(=O)O [Ser-Asp-Pro-Arg] (H-SDPR-OH)	50%	0%	18%								
tosyl-L-arginine sarcosine methylester [TASME, reference compound]	40%	0%	24%	No inhibition	No reduction in the size of the wheal						
N=C(N)NCCC[C@H](NC(=O)[C@@H]1CCCN1C(=O)[C@H](CC(=O)O)NC(=O)[C@H](CO)NC(=O)[C@@H](N)CC(=O)O)C(=O)O [Asp-Ser-Asp-Pro-Arg] (H-DSDPR-OH)	89%	60%	72%		approximately 45%	no local or systemic toxicological abnormalities	all still living	no local or systemic toxicological abnormalities	all still living		
C[C@H](N)C(=O)N[C@@H](CC(=O)O)C(=O)N[C@@H](CO)C(=O)N[C@@H](CC(=O)O)C(=O)N1CCC[C@H]1C(=O)N[C@@H](CCCNC(=N)N)C(=O)O [Ala-Asp-Ser-Asp-Pro-Arg] (H-ADSDPR-OH)	61%	10%	46%		approximately 23%					no local or systemic toxicological abnormalities	all still living
